Source: EPA's ToxValDB 9.5 (doi:10.2903/j.efsa.2014.3805)
Converted amounts (≈) assume the structure as drawn.

Legend:
[1] = test system: Apis mellifera; conditions: acute; oral; unspecified; mortality
[2] = test system: Bibionidae; conditions: chronic/long-term; duration: 28 days; body weight
[3] = test system: Colinus virginianus
[4] = test system: Cyprinus carpio; conditions: acute; duration: 96 hours; mortality
[5] = test system: Daphnia magna; conditions: chronic/long-term; duration: 21 days; body weight
[6] = test system: Oncorhynchus mykiss; conditions: acute; duration: 96 hours; mortality
[7] = test system: Pimephales promelas; conditions: chronic/long-term; duration: 28 days; body weight
[8] = test system: Rattus norvegicus
[9] = test system: Tagia sp.
[10] = test system: Aphidius rhopalosiphi; assay: LR50; higher = less toxic; conditions: acute; duration: 48 hours; mortality
[11] = test system: Typhlodromus pyri; assay: LR50; higher = less toxic; conditions: acute; duration: 7 days; mortality

Compound COc1ccccc1N1CCS/C1=C(/C#N)Sc1cc(C(F)(F)F)ccc1F [Flutianil] has an LD50 [1] of over 100 µg/piece, an NOEC [2] of 396 mg/kg and an LD50 ([3]; acute, oral, mortality) of over 2250 mg/kg. For the same compound, the NOAEL ([3]; reproduction developmental) was 186 mg/kg-day, the LC50 [4] was over 0.87 µg/mL and the NOEC [5] was 0.00697 mg/L. For the same compound, the LC50 [6] was 0.051 µg/mL (≈ 0.12 µM), the NOEC [7] was 0.000781 mg/L and the LD50 ([8]; acute, oral, mortality) was over 2000 mg/kg. It also gave an NOAEL ([8]; chronic, duration: 2 years, histopathology: nonneoplastic) of 81.9 mg/kg-day, an NOAEL ([8]; developmental, development) of 100 mg/kg-day and an NOAEL ([8]; reproduction developmental, organ weight) of 123 mg/kg-day. It also gave an LC50 ([9]; acute, duration: 14 days, mortality) of over 500 mg/kg, an NOEC ([9]; chronic/long-term, duration: 8 weeks, reproduction) of 6.25 mg/kg and an LR50 [10] of over 480 g/ha. For the same compound, the LR50 [11] was over 480 g/ha.
